According to patent US8268862B2, “Sirtuin modulating compounds” (Sirtris Pharmaceuticals, Inc., priority 2007, dated 2012):

Biological target: T1, SIRT1 (Homo sapiens, UniProt Q96EB6)
T1 sequence (Q96EB6 1-747): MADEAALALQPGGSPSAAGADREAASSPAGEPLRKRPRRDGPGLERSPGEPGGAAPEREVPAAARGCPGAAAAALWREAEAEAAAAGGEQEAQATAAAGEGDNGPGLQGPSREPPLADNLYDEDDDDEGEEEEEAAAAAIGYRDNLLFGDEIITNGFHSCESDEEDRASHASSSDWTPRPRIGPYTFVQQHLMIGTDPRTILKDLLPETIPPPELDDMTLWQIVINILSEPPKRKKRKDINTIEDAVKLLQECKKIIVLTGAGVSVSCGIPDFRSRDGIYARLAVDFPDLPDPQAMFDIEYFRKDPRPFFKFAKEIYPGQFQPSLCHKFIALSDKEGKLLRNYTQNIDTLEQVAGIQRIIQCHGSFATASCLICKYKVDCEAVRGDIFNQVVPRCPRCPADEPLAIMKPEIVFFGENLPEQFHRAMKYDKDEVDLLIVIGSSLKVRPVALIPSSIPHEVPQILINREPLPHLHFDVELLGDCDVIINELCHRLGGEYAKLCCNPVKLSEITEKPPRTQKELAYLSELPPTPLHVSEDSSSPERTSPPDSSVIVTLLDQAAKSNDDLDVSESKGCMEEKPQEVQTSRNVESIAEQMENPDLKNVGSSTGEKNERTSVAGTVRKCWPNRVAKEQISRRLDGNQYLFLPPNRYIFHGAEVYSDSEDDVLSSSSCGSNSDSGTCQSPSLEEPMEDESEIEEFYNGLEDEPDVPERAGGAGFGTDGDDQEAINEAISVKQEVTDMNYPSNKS
Experiment: mass spectrometry based SIRT1 deacetylation assay (activation)
Type: biochemical
Conditions: 0.5 μM peptide substrate, 120 μM βNAD+, 10 nM SIRT1, 25 min at 25° C.; for EC1.5 (concentration of test compound that results in 150% activation of SIRT1): NA = not active in the assay; for Emax: read-out: % FOLD ACT. (percent maximum fold activation of SIRT1)
From the text: A mass spectrometry based assay was used to identify modulators of SIRT1 activity. The mass spectrometry based assay utilizes a peptide having 20 amino acid residues as follows: Ac-EE-K(biotin)-GQSTSSHSK(Ac)NleSTEG-K(5TMR)-EE-NH2 (SEQ ID NO: 1) wherein K(Ac) is an acetylated lysine residue and Nle is a norleucine. The peptide is labeled with the fluorophore 5TMR (excitation 540 nm/emission 580 nm) at the C-terminus. The sequence of the peptide substrate is based on p53 with several modifications. In addition, the methionine residue naturally present in the sequence was replaced with the norleucine because the methionine may be susceptible to oxidation during synthesis and purification.
Test compounds may be added to the reaction as described above. […] After the 25 minute incubation with SIRT1, 10 μL of 10% formic acid is added to stop the reaction. Reactions are sealed and frozen for later mass spec analysis. Determination of the mass of the substrate peptide allows for precise determination of the degree of acetylation (i.e. starting material) as compared to deacetylated peptide (product).
A control for inhibition of sirtuin activity is conducted by adding 1 μL of 500 mM nicotinamide as a negative control at the start of the reaction (e.g., permits determination of maximum sirtuin inhibition). A control for activation of sirtuin activity is conducted using 10 nM of sirtuin protein, with 1 μL of DMSO in place of compound, to determine the amount of deacetylation of the substrate at a given timepoint within the linear range of the assay. This timepoint is the same as that used for test compounds and, within the linear range, the endpoint represents a change in velocity.
For the above assay, SIRT1 protein was expressed and purified as follows. […] The protein was expressed by induction with 1 mM IPTG as an N-terminal His-tag fusion protein at 18° C. overnight and harvested at 30,000×g. Cells were lysed with lysozyme in lysis buffer (50 mM Tris-HCl, 2 mM Tris[2-carboxyethyl]phosphine (TCEP), 10 μM ZnCl2, 200 mM NaCl) and further treated with sonication for 10 min for complete lysis. The protein was purified over a Ni-NTA column (Amersham) and fractions containing pure protein were pooled, concentrated and run over a sizing column (Sephadex S200 26/60 global). The peak containing soluble protein was collected and run on an Ion-exchange column (MonoQ). Gradient elution (200 mM-500 mM NaCl) yielded pure protein. This protein was concentrated and dialyzed against dialysis buffer (20 mM Tris-HCl, 2 mM TCEP) overnight. The protein was aliquoted and frozen at −80° C. until further use.
Sirtuin modulating compounds that activated SIRT1 were identified using the assay described above and are shown below in Table 3. The EC1.5 values represent the concentration of test compounds that result in 150% activation of SIRT1. NT means that the compound was not tested using the indicated assay. NA means that the compound was not active in the indicated assay.

Row | SMILES | EC1.5 (concentration of test compound that results in 150% activation of SIRT1) | Emax
1 | O=C(Nc1ccccc1-c1nc2cc(CN3CCOCC3)cnc2s1)c1cccc(-c2ncccn2)c1 [Compound 38] | 548 NM | 292%
2 | Cc1nc(-c2cccc(C(=O)Nc3ccccc3-c3nc4cc(CN5CCOCC5)cnc4s3)c2)cs1 [Compound 39] | 400 NM | 241%
3 | O=C(Nc1ccccc1-c1nc2cc(CN3CCOCC3)cnc2s1)c1cccc(-n2cccn2)c1 [Compound 40] | 182 NM | 397%
4 | COCCN1CCN(Cc2cnc3sc(-c4ccccc4NC(=O)c4cccc(-c5csc(C)n5)c4)nc3c2)CC1 [Compound 41] | 652 NM | 275%
5 | COCCN1CCN(Cc2cnc3sc(-c4ccccc4NC(=O)c4cccc(-c5ncccn5)c4)nc3c2)CC1 [Compound 42] | 656 NM | 212%
6 | O=C(Nc1ccccc1-c1nc2cc(CN3CC[C@@H](F)C3)cnc2s1)c1cccc(-n2cccn2)c1 [Compound 43] | 215 NM | 236%
7 | O=C(Nc1ccccc1-c1nc2cc(CN3CCNCC3)cnc2s1)c1cccc(-n2cccn2)c1 [Compound 44] | 397 NM | 603%
8 | COCCN1CCN(Cc2cnc3sc(-c4ccccc4NC(=O)c4cccc(-n5cccn5)c4)nc3c2)CC1 [Compound 45] | 144 NM | 569%
9 | Cc1nc(-c2cccc(C(=O)Nc3ccccc3-c3nc4cc(CN5CCNCC5)cnc4s3)c2)cs1 [Compound 46] | 503 NM | 446%
10 | COCCN1CCN(Cc2cnc3sc(-c4ccccc4NC(=O)c4cccc(-c5ccccc5)n4)nc3c2)CC1 [Compound 47] | 82 NM | –
11 | O=C(Nc1ccccc1-c1nc2cc(CN3CCOCC3)cnc2s1)c1cccc(-c2ccccc2F)c1 [Compound 48] | 395 NM | 222%
12 | O=C(Nc1ccccc1-c1nc2cc(CN3CCOCC3)cnc2s1)c1cccc(-c2cccc(F)c2)c1 [Compound 49] | 319 NM | 192%
13 | O=C(Nc1ccccc1-c1nc2cc(CN3CCOCC3)cnc2s1)c1cncc(-c2ccccc2F)c1 [Compound 50] | 533 NM | 207%
14 | O=C(Nc1ccccc1-c1nc2cc(CN3CCOCC3)cnc2s1)c1cncc(-c2cccc(F)c2)c1 [Compound 51] | 1640 NM | 172%
15 | O=C(Nc1ccccc1-c1nc2cc(CN3CCOCC3)cnc2s1)c1cccc(-c2ccccc2F)n1 [Compound 52] | 357 NM | 411%
16 | O=C(Nc1ccccc1-c1nc2cc(CN3CCOCC3)cnc2s1)c1cccc(-c2cccc(F)c2)n1 [Compound 53] | 66 NM | 837%
17 | O=C(Nc1ccccc1-c1nc2cc(CN3CC[C@@H](F)C3)cnc2s1)c1cccc(-c2cccc(F)c2)n1 [Compound 54] | 110 NM | 538%
18 | O=C(Nc1ccccc1-c1nc2cc(CN3CCOCC3)cnc2s1)c1cccc(-c2ccccc2)n1 [Compound 55] | 74 NM | > 500%
19 | COCCN1CCN(Cc2cnc3sc(-c4ccccc4NC(=O)c4ccnc(-c5ccccc5)c4)nc3c2)CC1 [Compound 56] | 458 NM | 389%

Row | SMILES | EC1.5 (concentration of test compound that results in 150% activation of SIRT1) | Emax
20 | COCCN1CCN(Cc2cnc3sc(-c4ccccc4NC(=O)c4cccc(-c5cccc(F)c5)n4)nc3c2)CC1 [Compound 57] | 41 NM | > 500%
21 | COCCN1CCN(Cc2cnc3sc(-c4ccccc4NC(=O)c4cccc(-c5cccnc5)c4)nc3c2)CC1 [Compound 58] | 884 NM | 370%
22 | COCCN1CCN(Cc2cnc3sc(-c4ccccc4NC(=O)c4cccc(-c5ccncc5)c4)nc3c2)CC1 [Compound 59] | 492 NM | 279%
23 | O=C(Nc1ccccc1-c1nc2cc(CN3CCCC3)cnc2s1)c1cccc(-c2ccccc2)n1 [Compound 60] | 144 NM | 477%
24 | O=C(Nc1ccccc1-c1nc2cc(CN3CCCC3)cnc2s1)c1cccc(-c2cccc(F)c2)n1 [Compound 61] | 78 NM | > 500%
25 | O=C(Nc1ccccc1-c1nc2cc(CN3CCNCC3)cnc2s1)c1cc(-c2ccccc2)no1 [Compound 62] | 592 NM | 231%
26 | O=C(Nc1ccccc1-c1nc2cc(CN3CCNCC3)cnc2s1)c1cnc2ccccc2n1 [Compound 63] | 859 NM | 303%
27 | O=C(Nc1ccccc1-c1nc2cc(CN3CCNCC3)cnc2s1)c1ccc2ccccc2n1 [Compound 64] | 260 NM | > 500%
28 | O=C(Nc1ccccc1-c1nc2cc(CN3CCOCC3)cnc2s1)c1cnc2ccccc2n1 [Compound 65] | – | 100%
29 | O=C(Nc1ccccc1-c1nc2ccc(CN3CCNCC3)nc2s1)c1cnc2ccccc2n1 [Compound 66] | – | 336%
30 | O=C(Nc1ccccc1-c1nc2cc(CN3CCOCC3)cnc2s1)c1ccc2ccccc2n1 [Compound 68] | 593 NM | 295%
31 | O=C(Nc1ccccc1-c1nc2ccc(CN3CCNCC3)nc2s1)c1ccc2ccccc2n1 [Compound 69] | 687 NM | > 500%
32 | O=C(Nc1ccccc1-c1nc2cc(CN3CCNCC3)cnc2s1)c1ccc2ncsc2c1 [Compound 70] | – | 298%
33 | O=C(Nc1ccccc1-c1nc2cc(CN3CCNCC3)cnc2s1)c1ccn(-c2ccccc2)n1 [Compound 71] | 1460 NM | 304%
34 | O=C(Nc1ccccc1-c1nc2cc(CN3CCOCC3)cnc2s1)c1ccnc(-c2ccccc2)n1 [Compound 72] | – | 100%
35 | O=C(Nc1ccccc1-c1nc2cc(CN3CCNCC3)cnc2s1)c1ccnc(-c2ccccc2)n1 [Compound 73] | 2970 NM | 183%
36 | COc1ccc(-c2ccc(C(=O)Nc3ccccc3-c3nc4cc(CN5CCOCC5)cnc4s3)o2)cc1 [Compound 74] | 421 NM | 236%
37 | O=C(Nc1ccccc1-c1nc2cc(CN3CCNCC3)cnc2s1)c1cccc(-c2nnn[nH]2)c1 [Compound 76] | 2790 NM | 285%
